Test results from the NIST ThermoML archive (doi:10.1016/j.jct.2019.02.011).

Assay: xn = mol fraction of the nth substance listed
Details: Liquid, Vibrating tube method

COC(=O)OC [dimethyl carbonate] + CCCO
mass density [kg/m3]
Details	100 kPa	5000 kPa	10000 kPa	15000 kPa	20000 kPa	25000 kPa	30000 kPa	35000 kPa	40000 kPa
298.15 K, x1 = 0.0273	–	–	–	–	–	824.63	827.8	830.69	833.7
298.15 K, x1 = 0.0506	–	–	–	–	–	831.37	834.55	837.44	840.46
298.15 K, x1 = 0.0755	–	–	–	–	–	838.51	841.73	844.68	847.74
298.15 K, x1 = 0.1007	–	–	–	–	–	845.6	848.88	851.87	854.94
298.15 K, x1 = 0.1495	–	–	–	–	–	859.5	862.83	865.84	868.95
298.15 K, x1 = 0.2003	–	–	–	–	–	873.75	877.1	880.17	883.35
298.15 K, x1 = 0.2529	–	–	–	–	–	888.37	891.77	894.9	898.11
298.15 K, x1 = 0.2993	–	–	–	–	–	901.23	904.69	907.88	911.12
298.15 K, x1 = 0.3497	–	–	–	–	–	915.04	918.51	921.76	925.01
298.15 K, x1 = 0.401	–	–	–	–	–	928.97	932.5	935.75	939.03
298.15 K, x1 = 0.4509	–	–	–	–	–	942.42	946	949.32	952.62
298.15 K, x1 = 0.5002	–	–	–	–	–	955.58	959.23	962.55	965.93
298.15 K, x1 = 0.5498	–	–	–	–	965.01	968.71	972.41	975.8	979.21
298.15 K, x1 = 0.5996	–	–	–	–	978.09	981.85	985.57	988.96	992.41
298.15 K, x1 = 0.6499	–	–	–	–	991.19	995.01	998.78	1002.23	1005.7
298.15 K, x1 = 0.7006	–	–	–	–	1004.45	1008.28	1012.06	1015.57	1019.07
298.15 K, x1 = 0.7471	–	–	–	–	1016.43	1020.32	1024.11	1027.63	1031.19
298.15 K, x1 = 0.7989	–	–	–	–	1029.72	1033.62	1037.46	1041.04	1044.59
298.15 K, x1 = 0.8491	–	–	–	–	1042.57	1046.53	1050.43	1054.02	1057.6
298.15 K, x1 = 0.8993	–	–	–	–	1055.43	1059.4	1063.31	1066.92	1070.52
298.15 K, x1 = 0.9249	–	–	–	–	1061.94	1065.92	1069.84	1073.44	1077.05
298.15 K, x1 = 0.9489	–	–	–	–	1067.96	1071.94	1075.86	1079.52	1083.13
298.15 K, x1 = 0.9743	–	–	–	–	1074.33	1078.36	1082.29	1085.95	1089.6
298.15 K, x1 = 1	–	–	–	–	1080.9	1084.89	1088.82	1092.44	1096.04
303.15 K, x1 = 0.0273	802.96	806.96	810.58	814.19	817.69	821.09	824.3	827.45	830.37
303.15 K, x1 = 0.0506	809.34	813.38	817.06	820.71	824.27	827.72	830.93	834.14	837.11
303.15 K, x1 = 0.0755	816.25	820.3	824.02	827.68	831.25	834.74	838.05	841.27	844.3
303.15 K, x1 = 0.1007	823.16	827.26	831	834.7	838.32	841.82	845.13	848.4	851.44
303.15 K, x1 = 0.1495	836.62	840.77	844.56	848.32	851.95	855.5	858.87	862.14	865.25
303.15 K, x1 = 0.2003	850.48	854.68	858.53	862.39	866.08	869.69	873.1	876.43	879.56
303.15 K, x1 = 0.2529	864.74	869	872.91	876.81	880.56	884.23	887.7	891.09	894.28
303.15 K, x1 = 0.2993	877.26	881.57	885.49	889.45	893.25	896.97	900.44	903.84	907.1
303.15 K, x1 = 0.3497	890.62	894.99	899.01	903.02	906.89	910.67	914.19	917.64	920.92
303.15 K, x1 = 0.401	904.1	908.57	912.65	916.71	920.64	924.47	928.04	931.51	934.85
303.15 K, x1 = 0.4509	917.2	921.72	925.81	929.92	933.91	937.75	941.37	944.84	948.26
303.15 K, x1 = 0.5002	930.06	934.59	938.74	942.9	946.9	950.79	954.47	958	961.43
303.15 K, x1 = 0.5498	942.89	947.47	951.68	955.89	959.95	963.85	967.53	971.12	974.61
303.15 K, x1 = 0.5996	955.69	960.32	964.59	968.8	972.92	976.87	980.61	984.2	987.76
303.15 K, x1 = 0.6499	968.54	973.22	977.56	981.82	985.95	989.96	993.75	997.34	1000.93
303.15 K, x1 = 0.7006	981.46	986.15	990.49	994.8	998.94	1003.01	1006.8	1010.45	1014.1
303.15 K, x1 = 0.7471	993.16	997.9	1002.3	1006.66	1010.86	1014.93	1018.72	1022.39	1026.05
303.15 K, x1 = 0.7989	1006.2	1010.99	1015.45	1019.82	1024.03	1028.15	1032	1035.67	1039.35
303.15 K, x1 = 0.8491	1018.81	1023.65	1028.12	1032.54	1036.81	1040.99	1044.84	1048.52	1052.22
303.15 K, x1 = 0.8993	1031.43	1036.28	1040.81	1045.23	1049.51	1053.69	1057.6	1061.28	1065.05
303.15 K, x1 = 0.9249	1037.82	1042.67	1047.21	1051.62	1055.91	1060.1	1064.01	1067.75	1071.52
303.15 K, x1 = 0.9489	1043.76	1048.62	1053.16	1057.63	1061.92	1066.11	1070.02	1073.76	1077.54
303.15 K, x1 = 0.9743	1050.11	1054.97	1059.51	1063.98	1068.28	1072.47	1076.38	1080.13	1083.97
303.15 K, x1 = 1	1056.61	1061.47	1066.02	1070.49	1074.79	1078.99	1082.9	1086.6	1090.4
308.15 K, x1 = 0.0273	798.56	802.69	806.56	810.18	813.81	817.21	820.58	823.72	826.71
308.15 K, x1 = 0.0506	804.88	809.05	812.98	816.65	820.28	823.74	827.15	830.34	833.34
308.15 K, x1 = 0.0755	811.69	815.86	819.84	823.57	827.25	830.71	834.12	837.36	840.41
308.15 K, x1 = 0.1007	818.55	822.77	826.76	830.48	834.21	837.72	841.19	844.43	847.53
308.15 K, x1 = 0.1495	831.9	836.17	840.21	844.04	847.82	851.38	854.86	858.14	861.25
308.15 K, x1 = 0.2003	845.6	849.97	854.07	857.95	861.78	865.4	868.98	872.31	875.47
308.15 K, x1 = 0.2529	859.71	864.12	868.28	872.21	876.1	879.78	883.42	886.79	890
308.15 K, x1 = 0.2993	872.12	876.53	880.75	884.73	888.67	892.4	896.05	899.42	902.69
308.15 K, x1 = 0.3497	885.38	889.84	894.11	898.2	902.19	905.97	909.68	913.1	916.37
308.15 K, x1 = 0.401	898.75	903.3	907.64	911.77	915.81	919.66	923.42	926.84	930.17
308.15 K, x1 = 0.4509	911.74	916.34	920.73	924.87	928.97	932.87	936.64	940.1	943.48
308.15 K, x1 = 0.5002	924.45	929.1	933.55	937.74	941.84	945.79	949.62	953.13	956.52
308.15 K, x1 = 0.5498	937.17	941.82	946.33	950.57	954.72	958.68	962.57	966.12	969.52
308.15 K, x1 = 0.5996	949.8	954.5	959.02	963.36	967.52	971.54	975.48	979.03	982.49
308.15 K, x1 = 0.6499	962.55	967.29	971.88	976.22	980.43	984.5	988.45	992.05	995.51
308.15 K, x1 = 0.7006	975.36	980.15	984.79	989.19	993.45	997.53	1001.49	1005.08	1008.6
308.15 K, x1 = 0.7471	986.95	991.79	996.49	1000.94	1005.2	1009.34	1013.35	1016.99	1020.52
308.15 K, x1 = 0.7989	999.88	1004.72	1009.48	1013.98	1018.3	1022.49	1026.51	1030.15	1033.73
308.15 K, x1 = 0.8491	1012.38	1017.27	1022.04	1026.54	1030.91	1035.16	1039.19	1042.88	1046.46
308.15 K, x1 = 0.8993	1024.9	1029.78	1034.61	1039.16	1043.54	1047.79	1051.88	1055.57	1059.15
308.15 K, x1 = 0.9249	1031.23	1036.11	1040.95	1045.55	1049.98	1054.24	1058.33	1062.01	1065.61
308.15 K, x1 = 0.9489	1037.12	1042.05	1046.89	1051.5	1055.93	1060.19	1064.28	1068.02	1071.61
308.15 K, x1 = 0.9743	1043.46	1048.4	1053.24	1057.85	1062.28	1066.54	1070.69	1074.37	1078.02
308.15 K, x1 = 1	1049.91	1054.84	1059.69	1064.3	1068.73	1073	1077.1	1080.78	1084.38
